Laboratory results reported in patent publication US11178873B2, “Cyclic N-carboxamide compounds useful as herbicides” (FMC CORPORATION, priority 2015, dated 2021).

Columns and labels:
Assay type in all cases: in vivo
[1] = tested on: barnyardgrass (Echinochloa crus-galli); assay: Test A preemergence, barnyardgrass; conditions: 0 to 100 scale, 0 no effect, 100 complete control
Outline: (§1)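 Compounds are applied in a non-phytotoxic solvent with surfactant, either preemergence as a directed soil spray or postemergence at the one- to two-leaf stage. Plants grow in loam–sand soil in a greenhouse, and injury is scored visually against untreated controls after about 10 d (0–100 scale).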

kochia (Kochia scoparia) [2] = assay: Test A preemergence, kochia; conditions: 0 to 100 scale, 0 no effect, 100 complete control
Outline: as §1

[3] = tested on: ragweed (common ragweed, Ambrosia elatior); assay: Test A preemergence, ragweed; conditions: 0 to 100 scale, 0 no effect, 100 complete control
Outline: as §1

[4] = tested on: ryegrass, Italian (Italian ryegrass, Lolium multiflorum); assay: Test A preemergence, ryegrass, Italian; conditions: 0 to 100 scale, 0 no effect, 100 complete control
Outline: as §1

[5] = tested on: foxtail, giant (giant foxtail, Setaria faberii); assay: Test A preemergence, foxtail, giant; conditions: 0 to 100 scale, 0 no effect, 100 complete control
Outline: as §1

[6] = tested on: pigweed (Amaranthus retroflexus); assay: Test A preemergence, pigweed; conditions: 0 to 100 scale, 0 no effect, 100 complete control
Outline: as §1

[7] = tested on: barnyardgrass (Echinochloa crus-galli); assay: Test A postemergence, barnyardgrass; conditions: 0 to 100 scale, 0 no effect, 100 complete control
Outline: as §1

kochia (Kochia scoparia) [8] = assay: Test A postemergence, kochia; conditions: 0 to 100 scale, 0 no effect, 100 complete control
Outline: as §1

[9] = tested on: ragweed (common ragweed, Ambrosia elatior); assay: Test A postemergence, ragweed; conditions: 0 to 100 scale, 0 no effect, 100 complete control
Outline: as §1

[10] = tested on: ryegrass, Italian (Italian ryegrass, Lolium multiflorum); assay: Test A postemergence, ryegrass, Italian; conditions: 0 to 100 scale, 0 no effect, 100 complete control
Outline: as §1

[11] = tested on: foxtail, giant (giant foxtail, Setaria faberii); assay: Test A postemergence, foxtail, giant; conditions: 0 to 100 scale, 0 no effect, 100 complete control
Outline: as §1

[12] = tested on: wheat (Triticum aestivum); assay: Test A postemergence, wheat; conditions: 0 to 100 scale, 0 no effect, 100 complete control
Outline: as §1

corn (Zea mays) = assay: Test A postemergence, corn; conditions: 0 to 100 scale, 0 no effect, 100 complete control
Outline: as §1

[13] = tested on: pigweed (Amaranthus retroflexus); assay: Test A postemergence, pigweed; conditions: 0 to 100 scale, 0 no effect, 100 complete control
Outline: as §1

[14] = tested on: blackgrass (Alopecurus myosuroides); assay: Test A postemergence, blackgrass; conditions: 0 to 100 scale, 0 no effect, 100 complete control
Outline: as §1

[15] = tested on: galium (catchweed bedstraw, Galium aparine); assay: Test A postemergence, galium; conditions: 0 to 100 scale, 0 no effect, 100 complete control
Outline: as §1

[16] = tested on: barnyardgrass (Echinochloa crus-galli); assay: Test B flooded paddy test, barnyardgrass; conditions: Flood, 250 g ai/ha; scale 0 to 100 (0 no effect, 100 complete control); 13 to 15 d
Outline: (§2)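 Ratings use a 0-100 visual scale, where 100 is complete control, and compare treated plants with controls after 13 to 15 d of greenhouse growth. Compound went straight into paddy water kept 3 cm over the soil surface, applied to seedlings at the 2-leaf stage.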

[17] = tested on: ducksalad (Heteranthera limosa); assay: Test B flooded paddy test, ducksalad; conditions: Flood, 250 g ai/ha; scale 0 to 100 (0 no effect, 100 complete control); 13 to 15 d
Outline: as §2

rice (Oryza sativa) = assay: Test B flooded paddy test, rice; conditions: Flood, 250 g ai/ha; scale 0 to 100 (0 no effect, 100 complete control); 13 to 15 d
Outline: as §2

[18] = tested on: sedge, umbrella (small-flower umbrella sedge, Cyperus difformis); assay: Test B flooded paddy test, sedge, umbrella; conditions: Flood, 250 g ai/ha; scale 0 to 100 (0 no effect, 100 complete control); 13 to 15 d
Outline: as §2

SMILES	Plant response rating, Barnyardgrass ([1]; 31 g ai/ha)	Plant response rating, Barnyardgrass ([1]; 125 g ai/ha)	Plant response rating, Kochia (kochia (Kochia scoparia) [2]; 31 g ai/ha)	Plant response rating, Kochia (kochia (Kochia scoparia) [2]; 125 g ai/ha)	Plant response rating, Ragweed ([3]; 31 g ai/ha)	Plant response rating, Ragweed ([3]; 125 g ai/ha)	Plant response rating, Ryegrass, Italian ([4]; 31 g ai/ha)	Plant response rating, Ryegrass, Italian ([4]; 125 g ai/ha)	Plant response rating, Foxtail, Giant ([5]; 31 g ai/ha)	Plant response rating, Foxtail, Giant ([5]; 125 g ai/ha)	Plant response rating, Pigweed ([6]; 31 g ai/ha)	Plant response rating, Pigweed ([6]; 125 g ai/ha)	Plant response rating, Barnyardgrass ([7]; 31 g ai/ha)	Plant response rating, Barnyardgrass ([7]; 125 g ai/ha)	Plant response rating, Kochia (kochia (Kochia scoparia) [8]; 31 g ai/ha)	Plant response rating, Kochia (kochia (Kochia scoparia) [8]; 125 g ai/ha)	Plant response rating, Ragweed ([9]; 31 g ai/ha)	Plant response rating, Ragweed ([9]; 125 g ai/ha)	Plant response rating, Ryegrass, Italian ([10]; 31 g ai/ha)	Plant response rating, Ryegrass, Italian ([10]; 125 g ai/ha)	further results
CN1CC(c2ccc(C(F)(F)F)cc2)N(C(=O)Nc2ccc(F)cc2F)C1=O (stereo not drawn) [Compound 15]	0	0	0	0	0	0	0	0	0	0	0	0	0	0	0	0	0	0	0	0	Plant response rating, Foxtail, Giant ([11]; 31 g ai/ha): 0; Plant response rating, Foxtail, Giant ([11]; 125 g ai/ha): 0; Plant response rating, Wheat ([12]; 31 g ai/ha): 0; Plant response rating, Wheat ([12]; 125 g ai/ha): 0; Plant response rating, Corn (corn (Zea mays); 31 g ai/ha): 0; Plant response rating, Corn (corn (Zea mays); 125 g ai/ha): 0; Plant response rating, Pigweed ([13]; 31 g ai/ha): 0; Plant response rating, Pigweed ([13]; 125 g ai/ha): 0; Plant response rating, Blackgrass ([14]; 31 g ai/ha): 0; Plant response rating, Blackgrass ([14]; 125 g ai/ha): 0; Plant response rating, Galium ([15]; 31 g ai/ha): 0; Plant response rating, Galium ([15]; 125 g ai/ha): 0; Plant response rating, Barnyardgrass [16]: 10; Plant response rating, Ducksalad [17]: 60; Plant response rating, Rice (rice (Oryza sativa)): 0; Plant response rating, Sedge, Umbrella [18]: 0
CN1CC(c2cccc(C(F)(F)F)c2)N(C(=O)Nc2cccc(F)c2F)C1=O (stereo not drawn) [Compound 18]	20	70	0	0	0	0	0	0	70	80	0	0	10	30	0	0	0	0	0	0	Plant response rating, Foxtail, Giant ([11]; 31 g ai/ha): 10; Plant response rating, Foxtail, Giant ([11]; 125 g ai/ha): 50; Plant response rating, Wheat ([12]; 31 g ai/ha): 0; Plant response rating, Wheat ([12]; 125 g ai/ha): 0; Plant response rating, Corn (corn (Zea mays); 31 g ai/ha): 0; Plant response rating, Corn (corn (Zea mays); 125 g ai/ha): 0; Plant response rating, Pigweed ([13]; 31 g ai/ha): 0; Plant response rating, Pigweed ([13]; 125 g ai/ha): 0; Plant response rating, Blackgrass ([14]; 31 g ai/ha): 0; Plant response rating, Blackgrass ([14]; 125 g ai/ha): 0; Plant response rating, Galium ([15]; 31 g ai/ha): 0; Plant response rating, Galium ([15]; 125 g ai/ha): 0; Plant response rating, Barnyardgrass [16]: 0; Plant response rating, Ducksalad [17]: 65; Plant response rating, Rice (rice (Oryza sativa)): 0; Plant response rating, Sedge, Umbrella [18]: 0
CN1CC(c2ccc(C(F)(F)F)cc2)N(C(=O)Nc2ccccc2F)C1=O (stereo not drawn) [Compound 13]	0	0	0	0	0	0	0	0	0	0	0	0	0	0	0	0	0	0	0	0	Plant response rating, Foxtail, Giant ([11]; 31 g ai/ha): 0; Plant response rating, Foxtail, Giant ([11]; 125 g ai/ha): 0; Plant response rating, Wheat ([12]; 31 g ai/ha): 0; Plant response rating, Wheat ([12]; 125 g ai/ha): 0; Plant response rating, Corn (corn (Zea mays); 31 g ai/ha): 0; Plant response rating, Corn (corn (Zea mays); 125 g ai/ha): 0; Plant response rating, Pigweed ([13]; 31 g ai/ha): 0; Plant response rating, Pigweed ([13]; 125 g ai/ha): 0; Plant response rating, Blackgrass ([14]; 31 g ai/ha): 0; Plant response rating, Blackgrass ([14]; 125 g ai/ha): 0; Plant response rating, Galium ([15]; 31 g ai/ha): 0; Plant response rating, Galium ([15]; 125 g ai/ha): 0; Plant response rating, Barnyardgrass [16]: 10; Plant response rating, Ducksalad [17]: 70; Plant response rating, Rice (rice (Oryza sativa)): 0; Plant response rating, Sedge, Umbrella [18]: 0
O=C1CCC(c2ccc(Cl)cc2)N1C(=O)Nc1ccc(F)c(F)c1F (stereo not drawn) [Compound 22]	0	0	0	0	0	0	0	0	0	0	0	0	0	0	0	0	0	0	0	0	Plant response rating, Foxtail, Giant ([11]; 31 g ai/ha): 0; Plant response rating, Foxtail, Giant ([11]; 125 g ai/ha): 0; Plant response rating, Wheat ([12]; 31 g ai/ha): 0; Plant response rating, Wheat ([12]; 125 g ai/ha): 0; Plant response rating, Corn (corn (Zea mays); 31 g ai/ha): 0; Plant response rating, Corn (corn (Zea mays); 125 g ai/ha): 0; Plant response rating, Pigweed ([13]; 31 g ai/ha): 0; Plant response rating, Pigweed ([13]; 125 g ai/ha): 0; Plant response rating, Blackgrass ([14]; 31 g ai/ha): 0; Plant response rating, Blackgrass ([14]; 125 g ai/ha): 0; Plant response rating, Galium ([15]; 31 g ai/ha): 0; Plant response rating, Galium ([15]; 125 g ai/ha): 0; Plant response rating, Barnyardgrass [16]: 0; Plant response rating, Ducksalad [17]: 0; Plant response rating, Rice (rice (Oryza sativa)): 0; Plant response rating, Sedge, Umbrella [18]: 0
CN1CC(c2cccc(C(F)(F)F)c2)N(C(=O)Nc2ccc(F)cc2F)C1=O (stereo not drawn) [Compound 17]	0	50	0	20	0	0	0	0	50	80	0	0	0	10	0	0	0	0	0	0	Plant response rating, Foxtail, Giant ([11]; 31 g ai/ha): 0; Plant response rating, Foxtail, Giant ([11]; 125 g ai/ha): 10; Plant response rating, Wheat ([12]; 31 g ai/ha): 0; Plant response rating, Wheat ([12]; 125 g ai/ha): 0; Plant response rating, Corn (corn (Zea mays); 31 g ai/ha): 0; Plant response rating, Corn (corn (Zea mays); 125 g ai/ha): 0; Plant response rating, Pigweed ([13]; 31 g ai/ha): 0; Plant response rating, Pigweed ([13]; 125 g ai/ha): 0; Plant response rating, Blackgrass ([14]; 31 g ai/ha): 0; Plant response rating, Blackgrass ([14]; 125 g ai/ha): 0; Plant response rating, Galium ([15]; 31 g ai/ha): 0; Plant response rating, Galium ([15]; 125 g ai/ha): 0; Plant response rating, Barnyardgrass [16]: 0; Plant response rating, Ducksalad [17]: 40; Plant response rating, Rice (rice (Oryza sativa)): 0; Plant response rating, Sedge, Umbrella [18]: 0
